Source: patent US20250281424A1 (New York Blood Center, Inc, priority 2020, published 2025)
“Also recorded” adds a separate entry of the source.

Key:
[1] = Human microsome stability; format: in vitro ADME; conditions: Human microsomes, compound conc = 0.5 μM, n = 1; read-out: Human microsome stability Half life t1/2
From the text: (§1) Certain exemplified compounds were examined for ADMET (absorption, distribution, metabolism, excretion and toxicity) profiling using conventional assays with the results shown in the Tables 3A-3C below.

[2] = tested on: FcγRIIA transgenic murine platelets; assay: PF4-KKO induced platelet activation, P-selectin, FcγRIIA transgenic murine platelets; format: cell-based, mouse; conditions: for normalized P-selectin levels: FIG. 22; for preventing P-selectin expression: FcγRIIA transgenic murine platelets, 50 μM compound, 37.5 μg/ml PF4, 50 μg/ml KKO (FIGS. 14-21)
Description: Whole blood was diluted with 1× Tyrode buffer (5 mM N-2-hydroxyethylpiperazine-N′-2-ethanesulfonic acid, 0.1% BSA, 134 mM NaCl, 0.3 mM NaH2PO4, 3 mM KCl, 2 mM MgCl2, 12 mM NaHCO3, 5 mM glucose) with 0.02 U/ml apyrase and 1 μM PGE1 and centrifuged at 100 g for 10 min. Platelet rich plasma (PRP) was carefully removed and centrifuged at 1000 g for 5 min. Platelet pellet was resuspended in Tyrode buffer with 0.02 U/ml apyrase at 2×10^8/ml concentration at 37° C. PF4 antagonists are diluted in Tyrode buffer, and are incubated with 10 μg/ml human PF4 purified protein at room temperature for 30 min. The PF4-drug complex is then incubated with 1×10^8/ml platelets with 1 mM CaCl2, 0.1% BSA at 37° C. for 10 min. 40 μg/ml KKO and 10 μg/ml anti-CD62P (P-selectin) antibodies are added into the reaction. One milliliter ice-cold PBS is added to each reaction after 5 min of incubation. Labelled platelets are then analyzed by a BD Accuri C6 flow cytometer. The results are represented by both the mean fluorescence intensity and by the percentage of positive platelets.
37.5 μg/ml PF4 with/without 50 μM of the exemplified compound incubated with 3×10^7/ml platelets; 50 μg/ml KKO.

[3] = target: T1, human PF4 (Homo sapiens, UniProt P02776); assay: Inhibition of PF4 tetramer formation (BS3 cross-linking, SDS-PAGE); format: biochemical; conditions: for inhibition at 5 µM: 5 μM inhibitor; for inhibition at 5 µM / inhibition at 10 µM: read-out: % inhibition of PF4 tetramer formation at single concentration of inhibitor; for inhibition at 10 µM: 10 μM inhibitor (column A); for IC50: read-out: IC50 of PF4 tetramer formation inhibition
T1 construct: PF4 is a 70 amino acid, lysine-rich 7.8 kDa platelet-specific protein; made in house; host or cells: Escherichia coli BL21DE3 pLysS (pT7-7) and/or Drosophila S2 cells
T1 sequence (P02776 32-101): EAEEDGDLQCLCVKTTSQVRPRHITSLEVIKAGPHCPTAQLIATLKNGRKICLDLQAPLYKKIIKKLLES
How it was run: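 Recombinant human wild-type PF4 (E. coli-expressed, heparin-purified), 10 μg/ml in PBS, incubated with compound 15 min at 37° C or 60 min at room temperature, then cross-linked with 0.2 mM BS3 for 30 min at room temperature. Reducing 12% SDS-PAGE; bands quantified as % tetramer, trimer, dimer, monomer versus compound-free control.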

[4] = tested on: human platelets; assay: PF4-KKO induced platelet activation, P-selectin, human platelets; format: cell-based; conditions: human platelet activation assays; 20 μM and 40 μM (FIGS. 8 and 9)
[5] = Mouse microsome stability; format: in vitro ADME; conditions: Mouse microsomes, compound conc = 0.5 μM, n = 1; read-out: Mouse microsome stability Half life t1/2
From the text: as §1

Compound	half-life at 0.5 μM [1]	normalized P-selectin levels [2]	preventing P-selectin expression [2]	inhibition at 5 µM [3]	inhibition at 10 µM [3]	IC50 [3]	PF4-KKO induced platelet activation using P-selectin as a marker [4]	half-life at 0.5 μM [5]
O=C(c1ccc2c(c1)C(=O)C(C(=O)NCCc1ccc(F)cc1)C2=O)c1ccc2c(c1)C(=O)C(C(=O)NCCc1ccc(F)cc1)C2=O (stereo not shown) [Example 22, 5,5′-carbonylbis(1,3-dioxo-indan-2-carboxylic acid (2-(4-fluorophenyl)ethyl)-amide)]	0.995 h	modulate the activity of normalized P-selectin; also recorded: inhibition	efficacy	66%	76%	1870 nM	inhibitory	0.798 h
O=C(NC1CC1)C1C(=O)c2ccc(S(=O)(=O)c3ccc4c(c3)C(=O)C(C(=O)NC3CC3)C4=O)cc2C1=O (stereo not shown) [Example 34, 5,5′-sulphonylbis(1,3-dioxo-indan-2-carboxylic acid (cyclopropyl)-amide)]	> 3 h	modulate the activity of normalized P-selectin; also recorded: inhibition	efficacy	60%	81%	1060 nM	inhibitory	1.44 h
COc1cccc(NC(=O)C2C(=O)c3ccc(S(=O)(=O)c4ccc5c(c4)C(=O)C(C(=O)Nc4cccc(OC)c4)C5=O)cc3C2=O)c1 (stereo not shown) [Example 36, 5,5′-sulphonylbis(1,3-dioxo-indan-2-carboxylic acid (3-methoxyphenyl)-amide)]	–	modulate the activity of normalized P-selectin; also recorded: inhibition	efficacy	65%	70%	1190 nM	–	–
O=C(c1ccc2c(c1)C(=O)C(C(=O)NCCc1ccc3c(c1)OCO3)C2=O)c1ccc2c(c1)C(=O)C(C(=O)NCCc1ccc3c(c1)OCO3)C2=O (stereo not shown) [Example 18, 5,5′-carbonylbis(1,3-dioxo-indan-2-carboxylic acid (2-benzo[1,3]dioxol-5-yl-ethyl)-amide)]	–	–	–	65%	75%	1810 nM	inhibitory	–
O=C(NCCc1ccccc1)C1C(=O)c2ccc(S(=O)(=O)c3ccc4c(c3)C(=O)C(C(=O)NCCc3ccccc3)C4=O)cc2C1=O (stereo not shown) [Example 33, 5,5′-sulphonylbis(1,3-dioxo-indan-2-carboxylic acid (2-phenylethyl)-amide)]	–	inhibition	efficacy	67%	76%	1600 nM	inhibitory	–
O=C(c1ccc2c(c1)C(=O)C(C(=O)Nc1ccc3c(c1)OCCO3)C2=O)c1ccc2c(c1)C(=O)C(C(=O)Nc1ccc3c(c1)OCCO3)C2=O (stereo not shown) [Example 29, 5,5′-carbonylbis(1,3-dioxo-indan-2-carboxylic acid (n-(2,3-dihydro-benzo[1,4]dioxin-6-yl))-amide)]	–	modulate the activity of normalized P-selectin; also recorded: inhibition	efficacy	–	–	3020 nM	inhibitory	–
CC(=O)C1C(=O)c2ccc(C(c3ccc4c(c3)C(=O)C(C(C)=O)C4=O)(C(F)(F)F)C(F)(F)F)cc2C1=O (stereo not shown) [Example 11, 2-acetyl-5-[(2-acetyl-2,3-dihydro-1,3dioxo-1h-inden-5-yl)-1,1,1,3,3,3-hexafluoropropan-2-yl]-2,3-dihydro-1,3-dioxo-1h-indene]	> 3 h	–	–	–	–	1450 nM	inhibitory	1.75 h
COc1ccc(NC(=O)C2C(=O)c3ccc(C(=O)c4ccc5c(c4)C(=O)C(C(=O)Nc4ccc(OC)cc4)C5=O)cc3C2=O)cc1 (stereo not shown) [Example 31, 5,5′-carbonylbis(1,3-dioxo-indan-2-carboxylic acid (4-methoxyphenyl)-amide)]	–	modulate the activity of normalized P-selectin; also recorded: inhibition	efficacy	–	–	1740 nM	inhibitory	–
